Results as given in a melting point compilation (Tetko et al.; mined from patent text by program, amines drawn as free bases though some values may be those of a salt).

melting point [°C]	SMILES
248 to 249	O=C(Nc1cccnn1)N1CCN(c2nccc(-c3cccc(F)c3F)n2)CC1
214 to 215	Nc1nc2c(c(Nc3ccc(Br)cc3)n1)-c1ccccc1C2
136 to 145	O=C(Nc1ccc(C(=O)N2C[C@H]3C[C@H](F)CN3c3ccccc32)cc1)c1ccccc1-c1ccccc1
194	CN1CCc2cc(NC(=O)/C=C/c3ccc(C(C)(C)C)cc3)ccc21
151 to 154	COC1=C(OC)C(=O)C2=C(CCC(CCOc3ccc(NC(C)=O)cc3)CC2)C1=O
138	CCCCCS(=O)(=O)NC(=O)/C=C/c1ccc(OCCOC)cc1OCc1ccc(Cl)cc1Cl
182 to 184	Cc1cc2c(cc1-c1cc(C=C3SC(=O)NC3=O)ccc1OC(F)(F)F)N(C)C(=O)CC2(C)C
123	CCOC(=O)C(=CC=C1CCc2ccccc2C1=O)N(C)C
226 to 227	O=C(O)c1ccc(F)c(Oc2ccccc2)c1
173	COc1ccc(S(=O)(=O)n2c(=O)n(-c3cccc(Cl)c3)c3cc(Cl)ccc32)c(OC)c1
175	O=C(O)c1ccccc1Oc1ccc(C(F)(F)F)cc1NS(=O)(=O)c1ccc(C(F)(F)F)cc1
110 to 111	O=C1CCc2ccc(OCCCCN3CCCN(c4cccc(Cl)c4Cl)CC3)nc2N1
155 to 157	C=CCc1c(OCC(O)CN2CCN(Cc3ccc(Cl)cc3)CC2)ccc2c(OCc3ccccc3)cc(=O)oc12 (stereo unspecified)
195 to 197	CCOC(=O)c1ccccc1-n1c(CCl)nc2ccc(Cl)cc2c1=O
51	O=C(C1CCCCC1)N1c2ccc(F)cc2CCC1CN1CCN(c2ccccc2OCC(F)(F)F)CC1 (stereo unspecified)
153 to 154	CCCOC1(C(F)(F)F)CN(C2CC2)C(=O)Nc2ccc(Cl)cc21 (stereo unspecified)
161 to 163	CCC(=O)N=C(NC(=O)OC)Nc1cc(Oc2ccccc2)ccc1NC(C)=O
217 to 221	CCCOc1ccc(S(C)(=O)=O)cc1C(=O)Nc1c(CC)nn(CC2CCCN2C)c1C(N)=O (stereo unspecified)
75 to 80	CC(=O)N(Cc1nc(-c2ccccc2)c(-c2ccccc2)o1)c1cccc(OCC(=O)O)c1

melting point [°C]	SMILES
120 to 123	CCOC(=O)c1cc2c(C(=O)CN(Cc3ccccc3)C(C)CC(=O)OC)ccc(OCc3ccccc3)c2[nH]1 (stereo unspecified)
168 to 170	CN(C)c1ccc(C=CC(O)c2cnc3sc4c(n23)CCCCC4)cc1 (stereo unspecified)
116 to 118	COc1cc(CCl)ccc1OCCCCOc1ccc(CCl)cc1OC
260 to 261	O=C1NC(=O)C(=Cc2ccc3c(c2)CN(c2ccccn2)CCO3)S1
140 to 141	O=C(Cc1ccc2ccn(C3CCN(CCc4ccc(F)cc4)CC3)c2c1)NCCO
198	Cn1c(=O)n(Cc2ccc3c(c2)OCO3)c(=O)c2cc(C(=O)NCc3ccc4c(c3)OCO4)ccc21
263 to 265	O=C(CN1CCN(c2ccc(C(=O)O)cc2)CC1)Nc1ccc(Cl)cc1
140	Cc1ccc(C(=O)N2CCC(CN3CCc4oc5ccccc5c4C3)CC2)cc1
271 to 274	CCn1cc(C(=O)O)c(=O)c2cc(F)c(N3CCC(CNC4CC4)C3)nc21 (stereo unspecified)
164 to 165	CC(=O)Nc1ccc(C(C)(C)C)cc1F
167 to 169	O=C1Nc2ccccc2N(C(=O)CCN2CCCC2)c2ccc(Cl)cc21
128 to 130	CC(C#N)(COc1cc(F)c(F)cc1-c1ccsc1)NC(=O)c1ccc(OC(F)(F)F)cc1 (stereo unspecified)
199 to 201	C=C(C)C(=O)Nc1ccc(O)c(-n2nc3ccc(OC)cc3n2)c1
124 to 127	CNC(=O)N1CCC(Oc2cccc(C(F)(F)F)c2)(c2ccccc2)CC1
86 to 88	CCCc1c(O)ccc(C(=O)OCc2ccccc2)c1O
203 to 205	COc1cc(C)nc(NC(=O)NS(=O)(=O)c2cccc3c2OCCO3)n1
170 to 171	CON=C[C@H]1NC(=O)[C@H]1NC(=O)OCc1ccccc1
186 to 188	CCc1nc(OC)c(NC(=O)N2CCN(c3cccc(F)c3)CC2)cc1C(=O)Nc1cc(CO)cc(Nc2c3ccccc3nc3ccccc23)c1

More lines, now with the values behind:

SMILES	melting point [°C]
CCCCCCCCCCOc1ccc(Cc2cnc(N)nc2N)cc1OC	169
CCOC(=O)Nc1cccc(C(=O)C=CN(C)C)c1	121 to 122
Cc1ccc(-c2nc3ccc(C)cn3c2C(O)C(=O)N(C)C)cc1 (stereo unspecified)	175 to 177
NCC1(C(=O)O)CC(c2ccccc2)Cc2c(O)cccc21 (stereo unspecified)	110 to 112
CCOC(CBr)(OCC)c1csc(NC(=N)N)n1	157 to 158
OCc1ccc(-c2cccc3cncn23)cc1	137 to 138
[O-][N+]1=C(c2ccccc2Cl)c2nc(Cl)ccc2-n2cnnc2C1	242 to 244
O=C(O)C=Cc1ccc(-c2ccc(-c3cccs3)s2)s1	220 to 225
CC(C)(C)c1cc(SC(Sc2cc(C(C)(C)C)c(O)c(C(C)(C)C)c2)c2ccccc2)cc(C(C)(C)C)c1O	122 to 124
CN(C(=O)Nc1cccnc1)c1ccc2c(ccn2C)c1	168 to 170
CN(C)c1ccc2cc(-c3ccnc(SCCO)c3C#N)ccc2c1	210 to 212
O=[N+]([O-])C(Br)(Br)CCO	22 to 25
CSc1ccc(Oc2ccc([N+](=O)[O-])cc2)cc1	59 to 61
CCOc1c(C#CCO)cc(C(C)(C)C)cc1C(C)(C)C	82 to 84
COc1cc(Cl)cnc1OCC#Cc1cc(Cl)ccn1	129
CNC(=NS(=O)(=O)N1CCCCC1)N1CC(c2ccccc2)C(c2ccc(Cl)cc2)=N1 (stereo unspecified)	175 to 177
O=[N+]([O-])c1ccc([N+](=O)[O-])c(OCC=CCBr)c1	81 to 83

SMILES	melting point [°C]
Nc1c(C(=O)O)cc(Br)nc1Br	251 to 253
COc1cc(-c2nn(C)c(C(F)(F)F)c2Cl)c(F)cc1[N+](=O)[O-]	115 to 116
Cc1ccc(S(=O)(=O)c2ccccc2)nc1	117 to 118
O=c1cc2sc3ccccc3nc-2c2ccccc12	176 to 177
CCC(=O)N1CCCSC1=C[N+](=O)[O-]	84 to 86
Fc1ccc(-c2ncn(C3CCN4CCCC4C3)c2-c2ccncc2)cc1 (stereo unspecified)	187 to 189
O=[N+]([O-])c1cc(CCCl)ccc1O	53 to 55
COc1cc(O)c2c(c1)[C@H]1CN(C)CC[C@@H]1CC2=O (relative stereo)	> 250
C=Cc1ccc2nnn(OS(C)(=O)=O)c2c1	129 to 130
CCC1CSC(CCc2ccccc2)(Cn2ccnc2)S1 (stereo unspecified)	115 to 118
CNC(=O)C(NC(=O)c1ccc(F)cc1C(F)(F)F)C(O)CO (stereo unspecified)	163
COc1cccc(Nc2cc(=S)ss2)c1	131 to 134
COc1ccc2oc(C(N)=O)c(-c3nnn[nH]3)c2c1	205
CC(C)(C)OC(=O)N[C@@H](COC(=O)C(C)(C)C)Cc1ccccc1	59 to 60
Oc1cc2[nH]c3cc(O)c(O)cc3c2cc1O	> 300
OCCCCc1ccc(N2CCOCC2)cc1	51 to 52
COC(=O)c1cc(Br)cc(-c2ccc3c(c2)C(C)(C)CCC3(C)C)c1	88
